PubChem BioAssay AID1552 (Sanford-Burnham Center for Chemical Genomics, 2009)
Calls of active or inactive are those of the source. No rule for the calls is given here.

Biological target: Ubiquitin-conjugating enzyme E2 N (Homo sapiens) (UniProt P61088)
Assay: UBE2N binders by NMR, biophysical, purified protein (AID 1552)
Conditions: NMR binding to purified UBE2N

Chain of Ubiquitin-conjugating enzyme E2 N (Homo sapiens) (P61088 whole entry, looked up): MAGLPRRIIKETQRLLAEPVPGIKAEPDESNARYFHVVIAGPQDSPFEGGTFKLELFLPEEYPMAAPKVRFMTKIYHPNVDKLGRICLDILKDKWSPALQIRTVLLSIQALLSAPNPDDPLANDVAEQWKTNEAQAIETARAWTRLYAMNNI

SMILES	Kd
CC(=O)N1CCN(C2CCSC2)CC1 (stereo not given)	> 4 mM (inactive)
COc1cc(OC)c2c(OC)c(-c3ccc4c(c3)OCO4)c(=O)oc2c1	> 4 mM (inactive)
OCc1ccc2occc2c1	> 4 mM (inactive)
O=C(NC1=NCCS1)c1csc2ccccc12	> 4 mM (inactive)
COc1ccc2c(c1OC)C(=O)N(c1ncn[nH]1)C2	> 4 mM (inactive)
Nc1ccccc1OC(F)(F)F	> 4 mM (inactive)
C=C(C)C1Cc2c(ccc(C(=O)O)c2O)O1 (stereo not given)	> 4 mM (inactive)
O=C(O)CC12CC3CC(CC(O)(C3)C1)C2	> 4 mM (inactive)
Nc1cc(=O)[nH]c(SCC(=O)NC2CCCCC2)n1	> 4 mM (inactive)
O=C1NC(=O)C(=Cc2ccccc2)C(=O)N1	> 4 mM (inactive)
CC(=O)Nc1cnn(-c2ccccc2)c(=O)c1Cl	> 4 mM (inactive)
COc1ccc2[nH]cc(CN(C)C)c2c1	> 4 mM (inactive)
NC(=O)c1cccc2c(=O)oc3ccccc3c12	> 4 mM (inactive)
CN(C)c1nc(N)nc(-c2nc3ccccc3s2)n1	> 4 mM (inactive)
Cc1ncc(C(=O)O)c(-c2ccccc2)n1	> 4 mM (inactive)
Cc1cc(C)n(-c2nc(C)nc(N)n2)n1	> 4 mM (inactive)
O=C(O[C@@H]1Cc2c(O)cc(O)cc2O[C@@H]1c1cc(O)c(O)c(O)c1)c1cc(O)c(O)c(O)c1	> 4 mM (inactive)
O=C1CC(=O)N2N=C(c3ccccc3)SC2=N1	> 4 mM (inactive)
Cc1nc2cc(Cl)ccc2n1CCO	> 4 mM (inactive)
Cc1occc1C(=O)Nc1ccc2c(c1)CCC2	> 4 mM (inactive)

SMILES	Kd
CN(C)c1nc(N)nc(Cn2ccnc2)n1	> 4 mM (inactive)
Cn1c([O-])c([N+](C)(C)C)c(=O)n(C)c1=O	> 4 mM (inactive)
OCC(O)Cc1ccc2c(c1)OCO2 (stereo not given)	> 4 mM (inactive)
CC(C)C(C)/C=C/C(C)C1CCC2C3=CC=C4CC(O)CCC4(C)C3CCC21C (stereo not given)	> 4 mM (inactive)
Cc1ccc(C(=O)N2CCC(C(N)=O)CC2)c(Cl)c1	> 4 mM (inactive)
O=C(c1cccc(-n2cnnn2)c1)N1CCOCC1	> 4 mM (inactive)
CCNC(CC(=O)Nc1cccc([N+](=O)[O-])c1)C(=O)O (stereo not given)	> 4 mM (inactive)
O=C1c2ccccc2-c2ncnc3cccc1c23	> 4 mM (inactive)
COC(=O)NCc1cc2cc(Cl)ccc2[nH]1	> 4 mM (inactive)
O=C1C2CC=CCC2C(=O)N1c1ccccc1 (stereo not given)	> 4 mM (inactive)
CC1=NN2C(=N)/C(=C\c3cccs3)C(=O)N=C2S1	> 4 mM (inactive)
Cc1cn(C(=O)CN2C(=O)c3ccccc3C2=O)c(C)n1	> 4 mM (inactive)
Cc1c(C)n2c(SCC(N)=O)nnc2[nH]c1=O	> 4 mM (inactive)
CCOC(=O)Cc1cc(=O)n2[nH]c(C)cc2n1	> 4 mM (inactive)
CC(C)Oc1ccc(C2CC(=O)NNC2=O)cc1 (stereo not given)	> 4 mM (inactive)
C/C=C/c1ccc2c(c1)OCO2	> 4 mM (inactive)
CN1C2C[C@H](OC(=O)[C@H](CO)c3ccccc3)C[C@H]1[C@@H](O)C2	> 4 mM (inactive)
O/N=C1/CCCc2nonc21	> 4 mM (inactive)
CC(C)CCCC1(C)C=Cc2c(O)c3c(c(CCC(C)C)c2O1)OC12C(CC4CC1C(C)(C)OC2(CCC(C)C(=O)O)C4O)C3=O (stereo not given)	> 4 mM (inactive)
COCCn1c(N)nc2c1c(=O)[nH]c(=O)n2C	> 4 mM (inactive)

SMILES	Kd
CC(=O)Nc1ccc(S(=O)(=O)NC(N)=O)cc1	> 4 mM (inactive)
Cc1cc(SCC(=O)Nc2nccs2)nc(=O)[nH]1	> 4 mM (inactive)
CCC1(CC)C(=O)NC(=O)N=C1N	> 4 mM (inactive)
O=C(O)CSc1nnc(-c2cccs2)o1	> 4 mM (inactive)
CC(=O)NC(=S)Nc1ccc(C(C)=O)cc1	> 4 mM (inactive)
CCOC(=O)c1c[nH]c2c(F)cccc2c1=O	> 4 mM (inactive)
CC(=O)c1sc2nc(N)nn2c1C	> 4 mM (inactive)
CC(=O)Nc1ccc2c(c1)C(=O)N(C1CCCCC1)C2=O	> 4 mM (inactive)
CN(C)S(=O)(=O)Nc1ccc(Br)cc1F	> 4 mM (inactive)
COC(=O)CCSCC(=O)Nc1nccs1	> 4 mM (inactive)
CC(=O)Nc1nnc(-c2ccccc2)o1	> 4 mM (inactive)
Cc1cc(=O)cc(C)n1-c1ccccc1N	> 4 mM (inactive)
CCOC(=O)c1cnn2ccccc12	> 4 mM (inactive)
COC(=O)c1ccc2nc[nH]c2c1	> 4 mM (inactive)
Cc1cc(C)nc(NC(N)=NCc2ccco2)n1	> 4 mM (inactive)
CC1(C)C[C@@H]2C(=O)CC[C@H]3O[C@]3(C)CC[C@H]21	> 4 mM (inactive)
CC(CC(=O)O)n1cccn1 (stereo not given)	> 4 mM (inactive)
C/C1=C/CC(C)(C)/C=C/C/C(C)=C/CC1	> 4 mM (inactive)
CSc1ncc(C(=O)O)n1Cc1ccccc1	> 4 mM (inactive)
Nc1cccc(F)c1-c1ncon1	> 4 mM (inactive)
